Experimental findings from US20260138985A1, “Azepino-Indoles for the Treatment of Neurological and Psychiatric Disorders” (Terran Biosciences Inc., priority 2021, published 2026) are described below.

Data set [1] is described as follows: Metabolic stability in human liver microsomes. Particulars: for difference in half-life and intrinsic clearance versus comparator: Compound 163 vs 8-methoxy-1,2,3,4,5,6-hexahydroazepino[4,5-b]indole, Compounds 1, 2 and 3 vs TBG; for half-life at 0.2 μM: pH 7.4, half life; for half-life at 0.2 μM / microsomal CLint at 0.2 μM / CLint scaled at 0.2 μM: values marked * average of two experiments; for microsomal CLint at 0.2 μM: pH 7.4, intrinsic clearance, read-out: CLint(mic); for CLint scaled at 0.2 μM: pH 7.4, scaled from CLint(mic). The class given is in vitro ADME. How it is done: Microsomal Assay: Human liver microsomes (20 mg/mL) are obtained from Xenotech, LLC (Lenexa, KS). β-nicotinamide adenine dinucleotide phosphate, reduced form (NADPH), magnesium chloride (MgCl2), and dimethyl sulfoxide (DMSO) are purchased from Sigma-Aldrich.
Determination of Metabolic Stability: 7.5 mM stock solutions of test compounds of the above structural formula (e.g., of an embodiment or aspect of embodiment thereof described herein), or pharmaceutically acceptable salt thereof, are prepared in DMSO. […] The diluted microsomes are added to wells of a 96-well deep-well polypropylene plate in triplicate. […] Reactions are initiated by addition of pre-warmed NADPH solution. The final reaction volume is 0.5 mL and contains 4.0 mg/mL human liver microsomes, 0.2 μM test compound, and 2 mM NADPH in 0.1 M potassium phosphate buffer, pH 7.4, and 3 mM MgCl2. The reaction mixtures are incubated at 37° C., and […] aliquots are removed at 0, 5, 10, 20, and 30 minutes and added to shallow-well 96-well plates which contain […] of ice-cold ACN (acetonitrile) with internal standard to stop the reactions. The plates are stored at 4° C. for 20 minutes after which […] of water is added to the wells of the plate before centrifugation to pellet precipitated proteins. Supernatants are transferred to another 96-well plate and analyzed for amounts of parent remaining by LC-MS/MS using an Applied Bio-systems API 4000 mass spectrometer. The same procedure is followed for the non-deuterated counterpart of the compound and the positive control, 7-ethoxycoumarin (1 μM). Testing is done in triplicate.
Data analysis: The in vitro Ti/s for test compounds are calculated from the slopes of the linear regression of % parent remaining (In) vs incubation time relationship.
[formula] • k=−[slope of linear regression of % parent remaining (In) vs incubation time] • The apparent intrinsic clearance is calculated using the following equation: […]
Data analysis is performed using Microsoft Excel Software.
A general note: Liver microsomes are vesicles of endoplasmic reticulum, rich in cytochrome P450 enzymes.

A further data set addresses T1, 5-HT2A receptor (Homo sapiens, UniProt P28223).
T1 construct: host or cells: unnamed cell lines
Briefly: Calcium mobilization assay, agonist format, 5-HT2A receptor. Particulars: read-out: 5-HT2A agonist Efficacy @ 10 µM. It counts as cell-based. As for the experimental part: (§1) Protocol—in vitro testing at select 5-hydroxytryptamine (5-HT; serotonin) receptors was conducted.
(§2) • 1. Cell lines were expanded from freezer stocks according to standard procedures. • 2. Cells were seeded in a total volume of 20 μL into black-walled, clear-bottom, Poly-D-lysine coated 384-well microplates and incubated at 37° C. for the appropriate time prior to testing.
(§3) • 1. Assays were performed in 1×Dye Loading Buffer consisting of 1× Dye, 1× Additive A and 2.5 mM Probenecid in HBSS/20 mM Hepes. Probenicid was prepared fresh. • 2. Cells were loaded with dye prior to testing. Media was aspirated from cells and replaced with 20 μL Dye Loading Buffer. • 3. Cells were incubated for 30-60 minutes at 37° C.
(§4) • 1. For agonist determination, cells were incubated with sample to induce response. • 2. After dye loading, cells were removed from the incubator and 10 μL HBSS/20 mM Hepes was added. 3× vehicle was included in the buffer when performing agonist dose curves to define • the EC80 for subsequent antagonist assays. Cells were incubated for 30 minutes at room temperature in the dark to equilibrate plate temperature. • 3. Intermediate dilution of sample stocks was performed to generate 4× sample in assay buffer. • 4. Compound agonist activity was measured on a FLIPR Tetra (MDS). Calcium mobilization was monitored for 2 minutes and 10 μL 4× sample in HBSS/20 mM Hepes was added to the cells 5 seconds into the assay.
(§5) • 1. Compound activity was analyzed using CBIS data analysis suite (ChemInnovation, CA). • 2. For agonist mode assays, percentage activity is calculated using the following formula: % Activity=100%×(mean RFU of test sample−mean RFU of vehicle control)/(mean MAX RFU control ligand −mean RFU of vehicle control). • 3. For positive allosteric mode assays, percentage modulation was calculated using the following formula: % Modulation=100%×((mean RFU of test sample−mean RFU of EC20 control)/(mean RFU of MAX control ligand −mean RFU of EC20 control)). • 4. For antagonist and negative allosteric modulation mode assays, percentage inhibition is calculated using the following formula: % Inhibition=100%×(1−(mean RFU of test sample−mean RFU of vehicle control)/(mean RFU of EC80 control−mean RFU of vehicle control)).
(§6) As discussed above, agonism, or partial agonism, of the 5-HT2A receptor (also known as positive allosteric modulation, or 5-HT2A modulation) is useful for the treatment of neurological and psychiatric disorders. For example, 5-HT2A agonism has been correlated with the promotion of neural plasticity (Ly et al., 2018). Agonism of the 5-HT2B receptor has been associated with unwanted cardiac valvulopathy side-effects, a form of cardio-toxicity (Rothman et al., Circulation. 2000, 102, 2836-2841; Fitzgerald et al., Molecular Pharmacology 2000, 57, 75-81). […] Antagonists of the 5-HT2C receptor are also useful for the treatment of neurological and psychiatric disorders (Kennett et al., Neuropharmacology 1997, 36, 609-620).

Another data set deals with T2, 5-HT2B receptor (Homo sapiens, UniProt P41595).
T2 construct: host or cells: unnamed cell lines
Briefly: Calcium mobilization assay, agonist format, 5-HT2B receptor. Particulars: read-out: 5-HT2B agonist Efficacy @ 5 µM. The class given is cell-based. As for the experimental part: as §1, §2, §3, §4, §5, §6
For orientation: Calcium flux is commonly read through the fluorescence of an indicator in the cells.

A further data set deals with T3, 5-HT2C receptor (Homo sapiens, UniProt P28335).
T3 construct: host or cells: unnamed cell lines
T3 sequence (P28335 33-458): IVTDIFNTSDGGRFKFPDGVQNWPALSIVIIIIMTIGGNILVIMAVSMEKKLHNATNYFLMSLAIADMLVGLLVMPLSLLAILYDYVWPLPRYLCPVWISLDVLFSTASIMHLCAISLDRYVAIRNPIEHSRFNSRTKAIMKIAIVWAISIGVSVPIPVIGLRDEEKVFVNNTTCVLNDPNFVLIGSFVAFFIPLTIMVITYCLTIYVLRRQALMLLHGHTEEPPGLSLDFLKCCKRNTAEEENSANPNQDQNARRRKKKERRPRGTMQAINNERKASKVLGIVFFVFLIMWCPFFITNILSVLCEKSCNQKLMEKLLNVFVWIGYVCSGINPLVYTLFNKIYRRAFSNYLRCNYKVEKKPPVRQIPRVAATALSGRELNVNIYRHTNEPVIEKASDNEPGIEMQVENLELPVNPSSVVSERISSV
The experiment in a line: Calcium mobilization assay, antagonist format, 5-HT2C receptor. The class given is cell-based. On the set-up: dose or concentration left out as unconfirmed. How it is done:
as §1, §2, §3
• 1. For antagonist determination, cells were pre-incubated with sample followed by agonist challenge at the EC80 concentration. • 2. Intermediate dilution of sample stocks was performed to generate 3× sample in assay buffer. • 3. After dye loading, cells were removed from the incubator and […] 3× sample was added. Cells were incubated for 30 minutes at room temperature in the dark to equilibrate plate temperature. Vehicle concentration was 1%. • 4. Compound antagonist activity was measured on a FLIPR Tetra (MDS). Calcium mobilization was monitored for 2 minutes and 10 μL EC80 agonist in HBSS/20 mM Hepes was added to the cells 5 seconds into the assay.
as §5, §6

The structures appear in SMILES notation.

T2 sequence (P41595 whole entry): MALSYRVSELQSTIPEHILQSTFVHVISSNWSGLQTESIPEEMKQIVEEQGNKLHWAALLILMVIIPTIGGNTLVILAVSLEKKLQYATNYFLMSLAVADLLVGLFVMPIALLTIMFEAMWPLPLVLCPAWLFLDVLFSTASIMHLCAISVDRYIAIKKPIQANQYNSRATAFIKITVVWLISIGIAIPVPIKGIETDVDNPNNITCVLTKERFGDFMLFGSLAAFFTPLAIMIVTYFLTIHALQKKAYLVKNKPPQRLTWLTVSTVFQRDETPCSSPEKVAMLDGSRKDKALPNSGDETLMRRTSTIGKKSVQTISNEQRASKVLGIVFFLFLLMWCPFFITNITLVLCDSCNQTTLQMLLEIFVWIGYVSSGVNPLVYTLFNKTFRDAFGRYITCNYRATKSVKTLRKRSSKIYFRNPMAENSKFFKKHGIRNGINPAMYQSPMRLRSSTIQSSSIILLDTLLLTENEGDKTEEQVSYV
T1 sequence (P28223 whole entry): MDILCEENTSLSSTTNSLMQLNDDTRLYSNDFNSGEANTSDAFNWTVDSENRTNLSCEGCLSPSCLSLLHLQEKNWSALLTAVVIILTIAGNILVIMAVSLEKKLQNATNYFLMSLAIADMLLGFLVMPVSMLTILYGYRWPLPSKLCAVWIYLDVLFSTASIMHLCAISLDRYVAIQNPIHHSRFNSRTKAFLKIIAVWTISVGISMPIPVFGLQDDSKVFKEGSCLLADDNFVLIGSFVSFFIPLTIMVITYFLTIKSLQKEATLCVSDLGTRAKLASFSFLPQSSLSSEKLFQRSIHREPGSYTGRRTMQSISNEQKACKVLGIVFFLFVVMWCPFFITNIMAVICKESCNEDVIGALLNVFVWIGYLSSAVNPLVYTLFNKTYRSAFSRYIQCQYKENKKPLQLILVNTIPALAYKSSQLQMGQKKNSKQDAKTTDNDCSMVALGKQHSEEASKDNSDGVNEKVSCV

With `[2H]C([2H])([2H])Oc1ccc2c3c([nH]c2c1)CCNCC3` [Compound 163, 8-(trideuteriomethoxy)-1,2,3,4,5,6-hexahydroazepino[4,5-b]indole], in data set [1], the “difference in half-life and intrinsic clearance versus comparator” value (“difference” below) is “significant difference in half-life”; the half-life at 0.2 μM is 1.44 h; the microsomal CLint at 0.2 μM came to 16.1 µL/min/mg; the CLint scaled at 0.2 μM was 14.5 mL/min/kg. Moreover, in data set [1] (compared with 8-methoxy-1,2,3,4,5,6-hexahydroazepino[4,5-b]indole), the intrinsic clearance ratio is listed as > 1.15. Besides, the activation at 10 µM at 5-HT2A receptor came to 83%. In addition, the activation at 5 µM on 5-HT2B receptor was -0.2%. For the same compound, the inhibition on 5-HT2C receptor was found to be 97.7%.
Take `COc1ccc2c3c([nH]c2c1)CCN(C)CC3` [TBG, 8-methoxy-3-methyl-1,2,3,4,5,6-hexahydroazepino[4,5-b]indole, reference compound]: in data set [1], the half-life at 0.2 μM was determined as 1.5 h, the microsomal CLint at 0.2 μM is 15.6 µL/min/mg and the CLint scaled at 0.2 μM worked out at 14 mL/min/kg. For the same compound, at 5-HT2A receptor, the activation at 10 µM is 38.5%. Moreover, on 5-HT2B receptor, the activation at 5 µM was -0.9%. In addition, at 5-HT2C receptor, the inhibition came to 94.7%.
For `[2H]C([2H])([2H])N1CCc2[nH]c3cc(OC)ccc3c2CC1` [Compound 2, 8-methoxy-3-(trideuteriomethyl)-2,4,5,6-tetrahydro-1H-azepino[4,5-b]indole], in data set [1], the “difference” value was “differences in half-life and intrinsic clearance”; the half-life at 0.2 μM was 1.4 h; the microsomal CLint at 0.2 μM was 16.6 µL/min/mg; the CLint scaled at 0.2 μM was 14.9 mL/min/kg. The activation at 10 µM at 5-HT2A receptor was 38%. In addition, the activation at 5 µM on 5-HT2B receptor is -0.4%. At 5-HT2C receptor, the inhibition was 94.5%.
In the case of `COc1ccc2c3c([nH]c2c1)CCNCC3` [8-methoxy-1,2,3,4,5,6-hexahydroazepino[4,5-b]indole, reference compound], in data set [1], the half-life at 0.2 μM was found to be 1.82 h, the microsomal CLint at 0.2 μM was found to be 12.7 µL/min/mg and the CLint scaled at 0.2 μM was found to be 11.4 mL/min/kg. Further, on 5-HT2A receptor, the activation at 10 µM was 85.3%. Also, the activation at 5 µM on 5-HT2B receptor came to 0.6%. In addition, the inhibition on 5-HT2C receptor stood at 98.1%.
For `[2H]C([2H])([2H])Oc1ccc2c3c([nH]c2c1)CCN(C)CC3` [Compound 1, 3-methyl-8-(trideuteriomethoxy)-2,4,5,6-tetrahydro-1H-azepino[4,5-b]indole], in data set [1], the “difference” value is “differences in half-life and intrinsic clearance”; the half-life at 0.2 μM came to 1.35 h; the microsomal CLint at 0.2 μM is 17.2 µL/min/mg; the CLint scaled at 0.2 μM was 15.4 mL/min/kg. Also, the activation at 10 µM at 5-HT2A receptor was 30.4%. Besides, on 5-HT2B receptor, the activation at 5 µM is -8.3%. Moreover, at 5-HT2C receptor, the inhibition was found to be 95.5%.
Consider `[2H]C([2H])([2H])Oc1ccc2c3c([nH]c2c1)CCN(C([2H])([2H])[2H])CC3` [Compound 3, 8-(trideuteriomethoxy)-3-(trideuteriomethyl)-2,4,5,6-tetrahydro-1H-azepino[4,5-b]indole], for which, in data set [1], the “difference” value was “differences in half-life and intrinsic clearance”; the half-life at 0.2 μM amounted to 1.38 h; the microsomal CLint at 0.2 μM was 16.8 µL/min/mg; the CLint scaled at 0.2 μM is 15.1 mL/min/kg. Moreover, on 5-HT2A receptor, the activation at 10 µM is 40%. Moreover, the activation at 5 µM at 5-HT2B receptor was -0.7%. On 5-HT2C receptor, the inhibition came out at 95%.

A word on the half-life: it is how long it takes for the measured level to halve. The CLint scaled is the rate of metabolic loss divided by the concentration. As a reminder, the inhibition is the percentage by which the read-out fell short of the control.
